Assay [1] concerns the target T1, monoacylglycerol lipase (MGLL) (Mus musculus, UniProt O35678).
T1 sequence (O35678 1-303): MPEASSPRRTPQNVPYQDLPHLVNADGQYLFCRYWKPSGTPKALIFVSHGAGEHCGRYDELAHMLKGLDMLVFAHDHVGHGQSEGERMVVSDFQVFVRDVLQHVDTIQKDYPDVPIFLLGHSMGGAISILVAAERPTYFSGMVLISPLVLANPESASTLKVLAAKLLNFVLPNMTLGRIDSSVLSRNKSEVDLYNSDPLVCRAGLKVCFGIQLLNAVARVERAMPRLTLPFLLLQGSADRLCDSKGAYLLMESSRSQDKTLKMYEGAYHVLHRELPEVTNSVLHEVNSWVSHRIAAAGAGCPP
The assay can be described thus: ITC with purified MGLL; supported by pull-down and LC-MS activity assay in hepatocyte lysate. In kind it is binding. Details: N-terminal 6×His fusion protein of the mouse MGLL domain.

In assay [2] the target is T1, monoacylglycerol lipase (MGLL). The experiment in a line: LC-MS 2-oleoylglycerol hydrolysis assay in hepatocyte lysate, […]. Format: cell-based. Details: endogenous or adenovirus-overexpressed MGLL in primary hepatocyte homogenate.

The text below walks through data of paper PMC12139501, “Acetyl-11-keto-β-boswellic acid alleviates hepatic metabolic dysfunction by inhibiting MGLL activity” (Journal of Lipid Research, 2025).

A word on the Kd: it is the equilibrium constant for the complex coming apart. A high value points to a looser complex. For `CC(=O)O[C@@H]1CC[C@@]2(C)[C@@H](CC[C@]3(C)[C@@H]2C(=O)C=C2[C@@H]4[C@@H](C)[C@H](C)CC[C@]4(C)CC[C@]23C)[C@@]1(C)C(=O)O` [AKBA], binding in assay [1] was put at a Kd of 40.6 µM.

Regarding `COC(=O)[C@]1(C)CC[C@]2(C)CC[C@]3(C)C4=CC=C5C(=CC(=O)C(O)=C5C)[C@]4(C)CC[C@@]3(C)[C@@H]2C1` [pristimerin], in assay [2], the “LC-MS 2-oleoylglycerol hydrolysis assay in hepatocyte lysate, 50 μM” value is “both AKBA and pristimerin significantly reduced MGLL activity in wild-type primary hepatocytes as well as in those overexpressing MGLL”.
